Experimental data from US20230015532A1, “PHARMACEUTICAL COMPOSITION, FOR PREVENTING OR TREATING FIBROSIS, COMPRISING PHEOPHORBIDE COMPOUND AS ACTIVE INGREDIENT” (PAEAN BIOTECHNOLOGY INC., priority 2019, published 2023).

How the values were obtained:
Type in all cases: cell-based, human
[1] = tested on: α-SMA, collagen 1A and fibronectin in CCD8-Lu cells; assay: Comparison of anti-fibrotic activity by Western blotting (Experimental Example 4.2); settings: 6 hours after 5 ng/ml TGF-β, 18 hours
Protocol: A cell-based analysis experiment was performed to analyze the anti-fibrotic activity of pheophorbide a in comparison with nintedanib and pirfenidone, which were previously approved as a therapeutic agent for pulmonary fibrosis, using Western blotting assay.
(§1) CCD8-Lu cells, which are human lung-derived fibroblasts, were cultured in the DMEM medium containing 10% FBS. About 2×10^5 cells were then inoculated into a 6 well plate, cultured for 24 hours, and subjected to the deficient condition in the DMEM medium from which FBS was removed for about 24 hours.
24 hours later, following the treatment with TGF-β at a concentration of 5 ng/ml, fibrosis of cells was induced for 6 hours. Then, the cells were treated with pheophorbide a obtained in Preparation Example 2 or the therapeutic agent for pulmonary fibrosis and further cultured for 18 hours. Then, the negative control group was treated with nothing, the positive control group was treated with TGF-β alone at a concentration of 5 ng/ml, and the experimental groups were treated with TGF-β at a concentration of 5 ng/ml and 6 hours later, with pheophorbide a at a concentration of […] or 5 μM, nintedanib at a concentration of 1 μM, and pirfenidone at a concentration of 1 mM, respectively.
After 18 hours, the culture medium was removed and the cells were washed twice by adding a PBS buffer solution, and 100 μl of RIPA buffer solution (150 mM NaCl, 1% NP-40, 0.5% Deoxycholic acid, 0.1% SDS, 50 mM Tris pH 7.5) containing a protease inhibitor was added thereto directly. 10 minutes later, the cells were recovered using a scraper and transferred to a microtube and centrifuged at about 12,000×g for 10 minutes.
The separated supernatant was obtained and transferred to a new microtube and then the protein was quantified using a bicinchoninic acid assay (BCA assay) protein quantitative kit. Each sample with the same amount of protein was subjected to electrophoresis, and then Western blotting was performed. […]

[2] = tested on: α-SMA, CTGF and NOX4 genes in CCD8-Lu cells; assay: Comparison of anti-fibrotic activity by quantitative real-time PCR (Experimental Example 4.1); settings: 6 hours after 5 ng/ml TGF-β, 18 hours, qRT-PCR
Protocol: A cell-based analysis experiment was performed to analyze the anti-fibrotic activity of pheophorbide a obtained in Preparation Example 2 in comparison with nintedanib and pirfenidone, which were previously approved as a therapeutic agent for pulmonary fibrosis, using quantitative real-time polymerase chain reaction.
as §1
24 hours later, following the treatment with TGF-β at a concentration of 5 ng/ml, fibrosis of cells was induced for 6 hours. After 6 hours, the cells were treated with pheophorbide a obtained in Preparation Example 2 or the therapeutic agent for pulmonary fibrosis and further cultured for 18 hours. […]
The supernatant was separated, added with the same volume of isopropyl alcohol and centrifuged at 12,000×g for 10 minutes. […] After drying, about 50 μl of RNAase-free purified distilled water was added thereto, and the quantity and purity of the obtained RNA was measured using a spectrophotometer. […]
After the cDNA synthesis reaction was completed, the reverse transcriptase was inactivated by heating at 72° C. for 5 minutes, and then RNase H was added to remove the […] RNA and obtain the final cDNA. Whether the expression of the alpha-smooth muscle actin gene, which is a characteristic gene of myofibroblasts, the CCN2 (or CTGF) gene, which is a characteristic gene for fibrosis, fibronectin, which is a characteristics gene for fibrosis, and the NOX4 (NADPH oxidase 4) gene known as a major regulator of the amount of reactive oxygen species was changed was observed through quantitative real-time polymerase chain reaction. The GAPDH gene was quantified together to correct differences in expression.

[3] = tested on: phosphorylated Smad3 and phosphorylated ERK in CCD8-Lu cells; assay: Western blotting of phosphorylated proteins of TGF-β signaling (Experimental Example 5); settings: 1 μM, 6 hours after 5 ng/ml TGF-β
Protocol: A cell-based assay experiment was performed using Western blotting assay to determine the effect of pheophorbide a on phosphorylation in the TGF-β signaling pathway. CCD8-Lu cells, which are human lung-derived fibroblasts, were cultured in the DMEM medium containing 10% FBS. About 2×10^5 cells were then inoculated into a 6 well plate, cultured for 24 hours, and subjected to the deficient condition in the DMEM medium from which FBS was removed for about 24 hours. 24 hours later, following the treatment with TGF-β at a concentration of 5 ng/ml, fibrosis of cells was induced for 6 hours. Then, the cells were treated with pheophorbide a obtained in Preparation Example 2 or the therapeutic agent for pulmonary fibrosis and further cultured for 18 hours. Then, the negative control group was treated with nothing, the positive control group was treated with TGF-β alone at a concentration of 5 ng/ml, and the experimental groups were treated with TGF-β at a concentration of 5 ng/ml and 6 hours later, with pheophorbide a at a concentration of 5 μM and nintedanib at a concentration of 1 μM, respectively. […] The separated supernatant was obtained and transferred to a new microtube and then the protein was quantified using a bicinchoninic acid assay (BCA assay) protein quantitative kit. […]

[4] = tested on: collagen 1A in CCD8-Lu cells; assay: Comparison of anti-fibrotic activity by immunocytochemistry staining (Experimental Example 4.3); settings: 1 μM; 6 hours after 5 ng/ml TGF-β; fluorescence intensity
Protocol: A cell-based analysis experiment was performed to analyze the anti-fibrotic activity of pheophorbide a in comparison with nintedanib and pirfenidone, which were previously approved as a therapeutic agent for pulmonary fibrosis, using immunocytochemistry staining method. CCD8-Lu cells, which are human lung-derived fibroblasts, were cultured in the DMEM medium containing 10% FBS. About 2×10^4 cells were then inoculated into a 24 well plate and cultured for 24 hours, and subjected to the deficient condition in the DMEM medium from which FBS was removed for about 24 hours. After 24 hours, following the treatment with TGF-β at a concentration of 5 ng/ml, fibrosis of cells was induced for 6 hours. After 6 hours, the cells were treated with 2.5 μM or 5 μM of pheophorbide a, 1 μM of nintedanib, or 1 mM of pirfenidone. Immunohistochemistry analysis for each sample was performed as follows. First, the sample was washed twice with a PBS buffer, and then 4% formaldehyde was added to fix for 1 hour, and anti-collagen 1A was used as a primary antibody and Alexa Fluor 488 was used as a secondary antibody. The nuclei were stained using DAPI (4,6-diamidino-2-phenylindole) and the difference in the intensity of fluorescence was analyzed using a fluorescence microscope.

| SMILES | expression of α-SMA, collagen 1A, and fibronectin induced by TGF-β ([1]; 1 μM) | expression of α-SMA, CTGF and NOX4 genes induced by TGF-β ([2]; 1 μM) | expression of phosphorylated Smad3 and phosphorylated ERK induced by TGF-β [3] | expression of the collagen 1A protein induced by TGF-β [4] | expression of α-SMA, collagen 1A, and fibronectin induced by TGF-β ([1]; 1 mM) | expression of α-SMA, CTGF and NOX4 genes induced by TGF-β ([2]; 1 mM) |
| --- | --- | --- | --- | --- | --- | --- |
| COC(=O)c1ccc2c(c1)NC(=O)/C2=C(\Nc1ccc(N(C)C(=O)CN2CCN(C)CC2)cc1)c1ccccc1 [nintedanib, reference compound] | weakly or hardly inhibited | weakly or hardly inhibited | hardly inhibited | weakly inhibited | – | – |
| Cc1ccc(=O)n(-c2ccccc2)c1 [pirfenidone] | – | – | – | – | weakly or hardly inhibited | weakly or hardly inhibited |
